Experiments:
ABCA1 [1] = assay: ABCA1 gene expression in primary astrocyte cultures (QRT-PCR); type: cell-based, mouse; settings: Astrocytes
Method: (§1) Total RNA was isolated from tissue and cell culture samples using TRIzol reagent (GibcoBRL). Briefly, tissue samples were thawed directly in 1 ml Trizol/50 mg tissue and homogenized with a polytron. To facilitate recovery of nucleic acid, 100 μg glycogen (Ambion) was added. Cultured cells were lysed in 1 ml Trizol containing 100 μg glycogen per well. Samples were then extracted in chloroform and spun at 4° C. at 11,000×g for 15 min. The aqueous phase was collected and the RNA was precipitated with the addition of isopropanol. The samples were then spun at 11,000×g at 4° C. for 15 min, the pellet washed in 75% ethanol, dried, and dissolved in water. Samples were stored at −70° C. until use.
(§2) Total RNA samples were diluted to 100 μg/ml and treated with 40 units/ml […] DNAse-I (Ambion) for 30 min at 37° C. followed by inactivation at 75° C. for 5 min. Samples were quantitated by spectrophotometry or with the RiboGreen assay (Molecular Probes) and diluted to a concentration of 10 ng/μl. […] In this system, the probe is degraded by Taq polymerase during the amplification phase, releasing the fluorescent tag from its quenched state; amplification data is expressed as the number of PCR cycles required to elevate the fluorescence signal beyond a threshold intensity level. […]

ABCA1 [2] = assay: ABCA1 gene expression in primary neuron cultures (QRT-PCR); type: cell-based, mouse; settings: Neurons
Method: as §1, §2

ABCG1 [3] = assay: ABCG1 gene expression in primary astrocyte cultures (QRT-PCR); type: cell-based, mouse; settings: Astrocytes
Method: as §1, §2

ABCA1 [4] = assay: ABCA1 gene expression in the CNS after oral dosing; type: in vivo, C57 B1/6 mice; settings: oral gavage, Example 1 10 mg kg twice daily, T0901317 50 mg/kg once daily
Method: as §1
(§3) Total RNA samples were diluted to 100 μg/ml and treated with 40 units/ml […] DNAse-I (Ambion) for 30 min at 37° C. followed by inactivation at 75° C. for 5 min. Samples were quantitated by spectrophotometry or with the RiboGreen assay (Molecular Probes) and diluted to a concentration of 10 ng/μl. Samples were then assayed in duplicate or triplicate 25-μl reactions using 25 ng RNA per reaction with Perkin Elmer chemistry on an ABI Prism 7700 (Perkin Elmer) according to manufacturer's instructions. Gene-specific primers were used at 7.5 or 22.5 pmol per reaction, optimized for each gene examined, and the gene-specific probe was used at 5 pmol per reaction. Primers and probe were synthesized by Keystone Labs (Camarillo, Calif.). In this system, the probe is degraded by Taq polymerase during the amplification phase, releasing the fluorescent tag from its quenched state; amplification data is expressed as the number of PCR cycles required to elevate the fluorescence signal beyond a threshold intensity level. Fold induction values were calculated by subtracting the mean threshold cycle number (Ct) for each treatment group from the mean Ct for the vehicle group and raising 2 to the power of this difference.
(§4) Adult male C57 B1/6 mice (3 per group) were dosed by oral gavage with the LXR agonists Example 1, T0901317, or vehicle (0.5% methylcellulose). Example 1 was delivered at 10 mg kg twice daily, while T0901317 was administered at 50 mg/kg once daily. After 3 or 7 days' treatment, animals were killed and their brains removed. The cerebellum and both hippocampi were dissected and snap frozen in liquid nitrogen for RNA isolation. Total RNA was prepared from the hippocampus and cerebellum (black bars) and analyzed for gene expression patterns using QRT-PCR (as described above). Expression levels for each gene in each tissue were normalized to the average expression level in the vehicle group. Both LXR agonists enhanced ABCA1 expression relative to the vehicle-treated group, with the effect most pronounced in the cerebellum after 3 days' treatment.

ABCG1 [5] = assay: ABCG1 gene expression in the CNS after oral dosing; type: in vivo, C57 B1/6 mice; settings: oral gavage, Example 1 10 mg kg twice daily, T0901317 50 mg/kg once daily
Method: as §1, §3, §4

SREBP-1c = SREBP-1c gene expression in the CNS after oral dosing; type: in vivo, C57 B1/6 mice; settings: oral gavage, Example 1 10 mg kg twice daily, T0901317 50 mg/kg once daily
Method: as §1, §3, §4

SMILES	ABCA1 expression normalized to vehicle-treated group (fold induction) (ABCA1 [1])	ABCA1 expression normalized to vehicle-treated group (fold induction) (ABCA1 [2])	ABCG1 expression normalized to vehicle-treated group (fold induction) (ABCG1 [3])	ABCA1 expression normalized to vehicle group (ABCA1 [4]; CB (cerebellum), first table)	ABCA1 expression normalized to vehicle group (ABCA1 [4]; CB (cerebellum), second table)	ABCA1 expression normalized to vehicle group (ABCA1 [4]; HC (hippocampus), first table)	ABCA1 expression normalized to vehicle group (ABCA1 [4]; HC (hippocampus), second table)	ABCG1 expression normalized to vehicle group (ABCG1 [5]; CB (cerebellum), first table)	ABCG1 expression normalized to vehicle group (ABCG1 [5]; CB (cerebellum), second table)	ABCG1 expression normalized to vehicle group (ABCG1 [5]; HC (hippocampus), first table)	ABCG1 expression normalized to vehicle group (ABCG1 [5]; HC (hippocampus), second table)	SREBP-1c expression normalized to vehicle group (SREBP-1c; CB (cerebellum), first table)	SREBP-1c expression normalized to vehicle group (SREBP-1c; CB (cerebellum), second table)	SREBP-1c expression normalized to vehicle group (SREBP-1c; HC (hippocampus), first table)	SREBP-1c expression normalized to vehicle group (SREBP-1c; HC (hippocampus), second table)
O=C(O)Cc1cccc(OCCCN(Cc2cccc(C(F)(F)F)c2Cl)CC(c2ccccc2)c2ccccc2)c1 [Example 1, 2-(3-{3-[[2-Chloro-3-(trifluoromethyl)benzyl](2,2-diphenylethyl)amino]propoxy}-phenyl)acetic Acid]	11.8	2.8	14.9	2.13 (0.354)	1.43 (0.302)	1.57 (0.348)	1.26 (0.162)	1.52 (0.073)	1.17 (0.142)	1.14 (0.212)	0.89 (0.045)	2.05 (0.427)	1.75 (0.236)	2.22 (0.600)	0.71 (0.327)
O=S(=O)(c1ccccc1)N(CC(F)(F)F)c1ccc(C(O)(C(F)(F)F)C(F)(F)F)cc1 [Example T0901317, N-(2,2,2-trifluoroethyl)-N-[4-(2,2,2-trifluoro-1-hydroxy-1-trifluoromethyl-ethyl)-phenyl]-benzenesulfonamide]	18.4	3.0	12.5	3.66 (0.389)	2.94 (0.084)	2.70 (0.304)	2.69 (0.175)	2.31 (0.081)	1.80 (0.116)	1.22 (0.098)	1.37 (0.092)	3.44 (0.632)	2.97 (0.557)	2.68 (0.209)	2.16 (0.110)
